Experimental findings from patent publication US11034672B1, “Tyrosine kinase inhibitor compositions, methods of making and methods of use” (Black Diamond Therapeutics, Inc., priority 2018, dated 2021) are described below.

Assay [1] deals with T1, EGFR WT (Homo sapiens, UniProt P00533). Description: Activity for inhibiting EGFR (Table A), EGFR WT. The settings on record: read-out: EGFR WT, potency code (IC50). Format: cell-based.
Assay [2] addresses T2, EGFR V3 (Homo sapiens, UniProt P00533, DELINS30-297G).
T2 construct: expressed in transfected cells; host or cells: BaF3 (murine pro-B), retroviral pMXs-IRES-Blasticidin
Description: Activity for inhibiting EGFR (Table A), EGFR V3 (EGFR-Viii). Format: cell-based. Conditions: read-out: EGFR V3, potency code (IC50).

The target of assay [3] is T3, EGFR NPH (Homo sapiens, UniProt P00533, DUP771-773).
T3 construct: expressed in transfected cells; host or cells: BaF3 (murine pro-B), retroviral pMXs-IRES-Blasticidin
Description: Activity for inhibiting EGFR (Table A), EGFR NPH. It is filed as cell-based. Conditions: read-out: EGFR NPH, potency code (IC50).

Assay [4] has as its target T4, EGFR SVD (Homo sapiens, UniProt P00533, DUP768-770).
T4 construct: expressed in transfected cells; host or cells: BaF3 (murine pro-B), retroviral pMXs-IRES-Blasticidin
Description: Activity for inhibiting EGFR (Table A), EGFR SVD. It is filed as cell-based. The settings on record: read-out: EGFR SVD, potency code (IC50).

The target of assay [5] is T5, HER2 WT (Homo sapiens, UniProt P04626). Description: Activity for inhibiting HER2 (Table B), HER2 WT. It is filed as cell-based.
T5 sequence (P04626 23-1255): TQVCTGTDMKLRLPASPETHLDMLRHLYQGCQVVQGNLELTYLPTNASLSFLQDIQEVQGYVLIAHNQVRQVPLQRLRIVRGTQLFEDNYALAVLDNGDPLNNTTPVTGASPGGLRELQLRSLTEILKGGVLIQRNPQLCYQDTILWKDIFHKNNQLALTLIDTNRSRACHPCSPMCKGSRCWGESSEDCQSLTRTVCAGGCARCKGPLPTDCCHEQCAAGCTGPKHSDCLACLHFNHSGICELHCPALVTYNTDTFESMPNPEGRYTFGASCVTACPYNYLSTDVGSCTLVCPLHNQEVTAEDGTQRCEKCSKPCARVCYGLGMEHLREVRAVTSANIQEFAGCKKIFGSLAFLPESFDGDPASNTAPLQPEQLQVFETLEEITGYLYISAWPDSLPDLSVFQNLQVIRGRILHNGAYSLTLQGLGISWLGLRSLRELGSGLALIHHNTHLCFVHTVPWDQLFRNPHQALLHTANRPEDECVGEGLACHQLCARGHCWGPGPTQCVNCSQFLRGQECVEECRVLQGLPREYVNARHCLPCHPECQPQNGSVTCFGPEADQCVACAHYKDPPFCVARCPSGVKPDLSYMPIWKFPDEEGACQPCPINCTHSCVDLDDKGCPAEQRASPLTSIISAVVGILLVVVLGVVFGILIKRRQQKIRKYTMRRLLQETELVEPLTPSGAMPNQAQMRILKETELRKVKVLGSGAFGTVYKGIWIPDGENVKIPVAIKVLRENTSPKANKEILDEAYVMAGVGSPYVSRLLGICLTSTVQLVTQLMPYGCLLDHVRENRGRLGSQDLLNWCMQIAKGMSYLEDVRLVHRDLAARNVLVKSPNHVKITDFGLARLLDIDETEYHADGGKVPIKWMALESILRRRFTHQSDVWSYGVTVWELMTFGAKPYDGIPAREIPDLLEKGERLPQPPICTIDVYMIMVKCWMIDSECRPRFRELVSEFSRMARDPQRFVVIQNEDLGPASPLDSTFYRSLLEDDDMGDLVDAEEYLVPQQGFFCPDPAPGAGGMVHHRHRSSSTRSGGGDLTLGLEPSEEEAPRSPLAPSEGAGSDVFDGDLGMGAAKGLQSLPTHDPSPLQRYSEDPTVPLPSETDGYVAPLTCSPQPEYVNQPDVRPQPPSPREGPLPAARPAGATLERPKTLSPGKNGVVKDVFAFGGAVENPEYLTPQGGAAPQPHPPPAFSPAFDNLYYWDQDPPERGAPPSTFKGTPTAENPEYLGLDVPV
In assay [6] the target is T6, HER2 S310F (Homo sapiens, UniProt P04626, S310F).
T6 construct: expressed in transfected cells; host or cells: BaF3 (murine pro-B)
Description: Activity for inhibiting HER2 (Table B), HER2 S310F. The settings on record: read-out: HER2 S310F, potency code (IC50). Format: cell-based. As for the experimental part:
(§1) EC50 values were determined with the same application.

The target of assay [7] is T7, HER2 YVMA (Homo sapiens, UniProt P04626, INS775YVMA).
T7 construct: expressed in transfected cells; host or cells: BaF3 (murine pro-B)
T7 sequence (P04626 with tags, fused parts or gaps INS775YVMA): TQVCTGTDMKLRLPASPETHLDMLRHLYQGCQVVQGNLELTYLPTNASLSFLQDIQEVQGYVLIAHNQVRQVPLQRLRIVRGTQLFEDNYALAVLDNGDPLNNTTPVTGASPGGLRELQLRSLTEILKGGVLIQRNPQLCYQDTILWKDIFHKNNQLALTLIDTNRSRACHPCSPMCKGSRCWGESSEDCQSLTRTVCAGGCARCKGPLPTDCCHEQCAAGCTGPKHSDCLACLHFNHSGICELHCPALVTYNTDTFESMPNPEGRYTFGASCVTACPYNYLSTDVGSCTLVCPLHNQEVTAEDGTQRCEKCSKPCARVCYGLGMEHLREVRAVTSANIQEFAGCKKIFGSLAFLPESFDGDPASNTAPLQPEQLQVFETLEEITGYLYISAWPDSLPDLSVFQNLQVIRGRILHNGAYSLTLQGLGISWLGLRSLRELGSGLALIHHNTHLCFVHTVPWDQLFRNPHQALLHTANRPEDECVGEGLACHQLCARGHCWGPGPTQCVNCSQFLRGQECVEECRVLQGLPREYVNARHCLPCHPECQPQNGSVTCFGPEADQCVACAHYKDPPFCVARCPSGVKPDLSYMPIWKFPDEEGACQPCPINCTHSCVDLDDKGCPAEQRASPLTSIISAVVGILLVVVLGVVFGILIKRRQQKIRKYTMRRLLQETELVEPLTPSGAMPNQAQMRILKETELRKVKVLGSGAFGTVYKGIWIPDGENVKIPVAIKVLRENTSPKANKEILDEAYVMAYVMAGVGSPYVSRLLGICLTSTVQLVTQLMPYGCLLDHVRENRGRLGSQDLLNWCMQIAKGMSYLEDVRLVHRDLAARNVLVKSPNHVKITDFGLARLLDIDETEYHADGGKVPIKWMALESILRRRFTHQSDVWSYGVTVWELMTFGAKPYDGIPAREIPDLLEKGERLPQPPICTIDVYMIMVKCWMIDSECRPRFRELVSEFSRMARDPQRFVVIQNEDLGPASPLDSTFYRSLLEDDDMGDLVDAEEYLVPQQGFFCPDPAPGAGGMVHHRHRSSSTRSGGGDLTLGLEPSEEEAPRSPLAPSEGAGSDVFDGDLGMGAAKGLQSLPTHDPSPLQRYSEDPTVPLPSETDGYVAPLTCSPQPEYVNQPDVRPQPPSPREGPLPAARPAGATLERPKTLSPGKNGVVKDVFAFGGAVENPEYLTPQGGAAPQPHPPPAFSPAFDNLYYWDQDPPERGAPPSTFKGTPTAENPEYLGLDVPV
The experiment in a line: Activity for inhibiting HER2 (Table B), HER2 YVMA. Format: cell-based. Conditions: read-out: HER2 YVMA, potency code (IC50). As for the experimental part: as §1

Assay [8] has as its target T1, EGFR WT. Description: BaF3 cell proliferation assay, EGFR WT (Table A). It is filed as cell-based. Conditions: potency code, 3 days, CellTiterGlo, read-out: EGFR WT (Activity for Inhibiting EGFR). Summed up: (§2)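 Mouse BaF3 cells were retrovirally transduced (pMXs-IRES-Blasticidin, VSV-G pseudotyped virus from HEK 293T) with the human EGFR or HER2 variant, selected in 10 μg/ml Blasticidin for one week, then made IL-3 independent. EC50 values come from proliferation of these lines.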

The target in assay [9] is T2, EGFR V3. Description: BaF3 cell proliferation assay, EGFR V3 (Table A). Format: cell-based. Conditions: potency code, 3 days, CellTiterGlo, read-out: EGFR V3 (Activity for Inhibiting EGFR). A digest of the protocol:
as §2

Assay [10] deals with T3, EGFR NPH. Description: BaF3 cell proliferation assay, EGFR NPH (Table A). It is filed as cell-based. Conditions: potency code, 3 days, CellTiterGlo, read-out: EGFR NPH (Activity for Inhibiting EGFR). Summed up: as §2
The target in assay [11] is T4, EGFR SVD. Description: BaF3 cell proliferation assay, EGFR SVD (Table A). Conditions: potency code, 3 days, CellTiterGlo, read-out: EGFR SVD (Activity for Inhibiting EGFR). Format: cell-based. A digest of the protocol:
as §2

Assay [12] addresses T5, HER2 WT. The experiment in a line: BaF3 cell proliferation assay, HER2 WT (Table B). It is filed as cell-based. Conditions: potency code, 3 days, CellTiterGlo, read-out: HER2 WT (Activity for Inhibiting HER2).
Assay [13] deals with T6, HER2 S310F. Description: BaF3 cell proliferation assay, HER2 S310F (Table B). The settings on record: potency code, 3 days, CellTiterGlo, read-out: HER2 S310F (Activity for Inhibiting HER2). Format: cell-based.
The target in assay [14] is T7, HER2 YVMA. The experiment in a line: BaF3 cell proliferation assay, HER2 YVMA (Table B). It is filed as cell-based. Conditions: potency code, 3 days, CellTiterGlo, read-out: HER2 YVMA (Activity for Inhibiting HER2).
In assay [15] the test system is Her2 S310F BaF3 tumors. Description: Tumor growth in athymic nude mice bearing Her2 S310F BaF3 tumors. It is filed as in vivo. Conditions: for Tumor response: FIG. 28. As for the experimental part: Tumor size was measured for each dosing schedule, and analyzed to assess regression. […] The effect was further confirmed in the dose-dependent experiment.
A mouse tumor model containing mutant Her2 was used to test the ability of Compound No. 26 to inhibit tumor growth and induce tumor regression in vivo. Athymic nude mice from Charles River Labs bearing Her2 S310F BaF3 tumors were treated with Compound No. 26 either at 15 mg/kg once per day (QD), 7.5 mg/kg twice per day (BID), and 15 mg/kg twice per day (BID). Tumor size was measured for each dosing condition and analyzed to assess regression. […] The effect was further confirmed in mice dosed at 15 mg/kg once per day (QD), 7.5 mg/kg twice per day (BID), and 15 mg/kg twice per day (BID). In addition to assessing tumor size in these groups, plasma was collected from dosed individuals at 2 and 5 hours following each treatment. Compound No. 26 levels were measured in the plasma samples to determine pharmacokinetic profiles that may influence tumor response.
Tumor size was measured and analyzed to assess the effect on tumor growth and regression.
A mouse tumor model containing mutant Her2 was used to test the ability of Compound No. 6 to inhibit tumor growth and induce tumor regression in vivo. Athymic nude mice from Charles River Labs bearing Her2 S310F BaF3 tumors were treated with Compound No. 6 at 30 mg/kg once per day (QD) for 10 days. Tumor size was measured and analyzed to assess the effect on tumor growth and regression.

Where [16] appears, read: Table B, read-out: HER2 WT, potency code (IC50).
[17] abbreviates: text lists of compounds, read-out: IC50 value for inhibiting wild-type HER2.
The mark [18] stands for this setting: 50 mg/kg once per day for 10 days.

T2 sequence (P00533 with tags, fused parts or gaps DELINS30-297G): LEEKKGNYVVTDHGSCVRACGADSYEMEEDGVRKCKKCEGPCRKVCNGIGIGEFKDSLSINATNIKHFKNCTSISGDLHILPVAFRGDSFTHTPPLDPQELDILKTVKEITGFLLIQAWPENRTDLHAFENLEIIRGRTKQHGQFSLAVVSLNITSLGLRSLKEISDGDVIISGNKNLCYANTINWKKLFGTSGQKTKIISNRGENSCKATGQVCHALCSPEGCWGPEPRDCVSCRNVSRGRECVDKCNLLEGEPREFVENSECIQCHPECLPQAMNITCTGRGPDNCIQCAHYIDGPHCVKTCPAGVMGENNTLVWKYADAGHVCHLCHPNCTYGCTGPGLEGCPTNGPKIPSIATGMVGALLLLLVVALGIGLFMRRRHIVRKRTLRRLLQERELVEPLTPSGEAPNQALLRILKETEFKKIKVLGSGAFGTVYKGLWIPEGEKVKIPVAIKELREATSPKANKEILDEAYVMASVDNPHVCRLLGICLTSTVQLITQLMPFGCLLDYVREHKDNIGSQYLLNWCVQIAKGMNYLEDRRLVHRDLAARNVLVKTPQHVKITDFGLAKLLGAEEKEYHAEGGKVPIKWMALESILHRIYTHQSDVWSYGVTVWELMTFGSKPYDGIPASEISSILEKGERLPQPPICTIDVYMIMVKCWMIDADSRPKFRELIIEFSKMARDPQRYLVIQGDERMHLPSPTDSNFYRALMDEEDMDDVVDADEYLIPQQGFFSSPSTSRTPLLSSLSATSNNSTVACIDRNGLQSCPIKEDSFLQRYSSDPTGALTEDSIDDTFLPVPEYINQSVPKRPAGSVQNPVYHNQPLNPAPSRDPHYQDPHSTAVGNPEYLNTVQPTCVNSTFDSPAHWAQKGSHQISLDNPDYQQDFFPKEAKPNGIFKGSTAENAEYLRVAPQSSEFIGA
T4 sequence (P00533 with tags, fused parts or gaps DUP768-770): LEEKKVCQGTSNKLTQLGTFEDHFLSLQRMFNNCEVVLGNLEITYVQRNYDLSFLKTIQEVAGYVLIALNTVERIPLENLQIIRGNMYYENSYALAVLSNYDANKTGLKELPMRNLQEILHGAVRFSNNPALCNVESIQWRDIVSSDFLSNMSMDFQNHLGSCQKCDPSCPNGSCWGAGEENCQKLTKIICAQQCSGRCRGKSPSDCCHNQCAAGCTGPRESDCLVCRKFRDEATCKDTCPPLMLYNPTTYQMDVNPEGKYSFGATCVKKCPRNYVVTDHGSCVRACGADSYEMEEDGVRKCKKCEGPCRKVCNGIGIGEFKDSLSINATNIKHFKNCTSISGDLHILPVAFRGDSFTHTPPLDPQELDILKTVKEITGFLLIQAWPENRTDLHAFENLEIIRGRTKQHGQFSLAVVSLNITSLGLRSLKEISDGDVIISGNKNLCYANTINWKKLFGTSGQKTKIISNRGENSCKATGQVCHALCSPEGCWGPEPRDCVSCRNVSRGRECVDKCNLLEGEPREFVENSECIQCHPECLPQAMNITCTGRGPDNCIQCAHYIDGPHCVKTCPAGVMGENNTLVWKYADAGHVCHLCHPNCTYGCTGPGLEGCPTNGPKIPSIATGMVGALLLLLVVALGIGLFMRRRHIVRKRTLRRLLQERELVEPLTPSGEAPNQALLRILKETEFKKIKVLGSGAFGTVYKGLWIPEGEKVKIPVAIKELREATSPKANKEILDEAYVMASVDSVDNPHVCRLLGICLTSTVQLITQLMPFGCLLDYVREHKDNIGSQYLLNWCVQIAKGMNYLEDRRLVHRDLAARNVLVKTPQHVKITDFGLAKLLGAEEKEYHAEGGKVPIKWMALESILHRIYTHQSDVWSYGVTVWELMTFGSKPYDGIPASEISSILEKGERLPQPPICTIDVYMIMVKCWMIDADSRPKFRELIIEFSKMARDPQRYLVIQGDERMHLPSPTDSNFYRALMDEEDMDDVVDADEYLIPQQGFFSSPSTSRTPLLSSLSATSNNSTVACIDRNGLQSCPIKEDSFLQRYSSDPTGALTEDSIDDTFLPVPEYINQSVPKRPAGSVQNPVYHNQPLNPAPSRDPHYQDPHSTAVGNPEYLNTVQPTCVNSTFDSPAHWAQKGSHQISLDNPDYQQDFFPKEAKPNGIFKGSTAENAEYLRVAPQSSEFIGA

As for `CC#CC(=O)Nc1cc2c(Nc3ccc(OCc4ccccn4)c(Cl)c3)ncnc2cc1OCCN1CCOCC1` [compound 5], the IC50 in [1] was 0.03 to 0.05 µM; in [2], 0.01 to 0.02 µM; in [3] it was 0.03 to 0.05 µM; in [4], 0.01 to 0.02 µM; in assay [5] (setting [16]) it was less than 0.005 µM; in assay [5] (setting [17]), not above 0.005 µM. Further, the IC50 in assay [6] is less than 0.005 µM; in assay [7], 0.005 to 0.01 µM; in [8], 0.03 to 0.05 µM; in assay [9], 0.01 to 0.02 µM; in assay [10], 0.03 to 0.05 µM; in assay [11], 0.01 to 0.02 µM. Further, the values for the IC50 in assay [12], in [13] and in assay [14] were less than 0.005 µM, less than 0.005 µM and 0.005 to 0.01 µM, respectively.

With `C=CC(=O)Nc1cc2c(Nc3cc(Cl)c(OCc4cccc(F)c4)cc3F)ncnc2cc1OCCN1CCOCC1` [compound 6], the IC50 in assay [1] was 0.2 to 0.3 µM; in assay [2] it was 0.02 to 0.03 µM; in assay [5] (setting [16]), 0.005 to 0.01 µM; in [5] (setting [17]) it was not above 0.01 µM; in assay [6], 0.01 to 0.02 µM; in [7], 0.05 to 0.1 µM. In addition, the IC50 in [8] was 0.2 to 0.3 µM; in assay [9] it was 0.02 to 0.03 µM; in assay [12] it was 0.005 to 0.01 µM; in assay [13], 0.01 to 0.02 µM; in [14] it was 0.05 to 0.1 µM. Also, the Tumor volume result in assay [15] (30 mg/kg once per day (QD) for 10 days, FIG. 30) is “decreased”.

Regarding `C=CC(=O)Nc1cc2c(Nc3ccc(OCc4ccccn4)c(Cl)c3)ncnc2cc1OCCN1CCOCC1` [compound 8], the IC50 is 0.3 to 0.5 µM in assay [1]; 0.02 to 0.03 µM in assay [2]; 0.03 to 0.05 µM in assay [3]; 0.02 to 0.03 µM in assay [4]; 0.005 to 0.01 µM in [5] (setting [16]); not above 0.01 µM in assay [5] (setting [17]). Further, the IC50 in assay [6] fell in the range of 0.01 to 0.02 µM; in assay [7] it was 0.05 to 0.1 µM; in assay [8] it was 0.3 to 0.5 µM; in assay [9], 0.02 to 0.03 µM; in [10], 0.03 to 0.05 µM; in [11] it was 0.02 to 0.03 µM. Further, the IC50 in assay [12] was 0.005 to 0.01 µM; in [13], 0.01 to 0.02 µM; in assay [14], 0.05 to 0.1 µM. The “Tumor regression, dose-dependent experiment” value in assay [15] (15 mg/kg to 100 mg/kg once per day (QD) for 10 days, FIG. 26 right panel) is given as “regressed in a Compound No. 8 dose-dependent manner”. Further, in assay [15] (setting [18]), the Tumor volume result was “decreased”.

Consider `C=CC(=O)Nc1cc2c(Nc3ccc(OCc4ccccn4)c(Cl)c3)ncnc2cc1OCCCN1CCOCC1` [compound 21], for which the IC50 in [1] is 0.5 to 1 µM; in [2], 0.02 to 0.03 µM; in [3], 0.01 to 0.02 µM; in assay [4] it was 0.01 to 0.02 µM; in assay [5] (setting [16]) it was less than 0.005 µM; in assay [5] (setting [17]), not above 0.01 µM. Further, the IC50 is 0.005 to 0.01 µM in assay [6]; 0.02 to 0.03 µM in assay [7]; 0.5 to 1 µM in assay [8]; 0.02 to 0.03 µM in assay [9]; 0.01 to 0.02 µM in assay [10]; 0.01 to 0.02 µM in assay [11]. Also, the IC50 in assay [12] is less than 0.005 µM; in assay [13] it was 0.005 to 0.01 µM; in [14], 0.02 to 0.03 µM. The Tumor volume result in assay [15] (setting [18]) is “did not increase over the same timeframe and showed moderate reduction in volume”.

Consider `C=CC(=O)Nc1cc2c(Nc3ccc(OCc4ccccn4)c(Cl)c3)ncnc2cc1C#C[C@@H]1[C@H]2CN(C)C[C@@H]12` [compound 26], for which the IC50 in assay [1] is 0.3 to 0.5 µM; in assay [2], 0.03 to 0.05 µM; in [3], 0.03 to 0.05 µM; in assay [4], 0.03 to 0.05 µM; in assay [5] (setting [16]), 0.005 to 0.01 µM; in assay [5] (setting [17]), not above 0.01 µM. Besides, the IC50 is 0.005 to 0.01 µM in assay [6]; 0.03 to 0.05 µM in [7]; 0.3 to 0.5 µM in assay [8]; 0.03 to 0.05 µM in assay [9]; 0.03 to 0.05 µM in assay [10]; 0.03 to 0.05 µM in assay [11]. Besides, the IC50 in assay [12] lay in the range of 0.005 to 0.01 µM; in assay [13], 0.005 to 0.01 µM; in [14], 0.03 to 0.05 µM. In addition, the Tumor response result is listed as “definite tumor growth inhibition properties” in [15] (7.5 mg/kg twice per day (BID)), “definite tumor regressive properties” in [15] (15 mg/kg BID) and “definite tumor growth inhibition properties” in assay [15] (15 mg/kg once per day (QD)). Besides, the “Tumor volume over the time course” value in [15] (15 mg/kg QD, 7.5 mg/kg BID, 15 mg/kg BID, FIG. 27) was “did not increase”.
